Consider 19 molecules from patent US12077531B2, “Imidazopyridinone compound” (KISSEI PHARMACEUTICAL CO., LTD., priority 2018, dated 2024).

Counter-ions that a name gives are not always drawn.

The assay deals with human PHD2184-418 (Homo sapiens (Human), UniProt Q9GZT9). Description: PHD2 inhibitory test (fluorescence polarization, binding between PHD2 and HIF-1α). The following applies: for IC50: human PHD2184-418, FITC-labeled HIF-1α556-574, 2 μM 2-oxoglutarate, 37° C. 60 minutes; for inhibition at 100 µM: read-out: inhibition rate at the compound concentration of 100 μM (numerals with *), compound concentration 100 μM. The method, then:
Test Example 1 PHD2 Inhibitory Test
(1) Expression and Preparation of Human PHD2184-418
Human PHD2184-418 containing amino acid residues 184 to 418 of the protein represented by CAC42509 (GenBank accession ID) was expressed and prepared by the following method.
An expression construct of human PHD2184-418 containing N-terminal histidine tag was introduced into pET-30a (+) vector, and the sequence was confirmed. This vector was introduced into BL21 (DE3) strain and cultured at 37° C. in LB medium containing antibiotics. After culturing, a cell lysis solution was added to the cells, and then the cells were disrupted by sonication. The disrupted suspension was centrifuged and the supernatant was purified by Ni column to give human PHD2184-418.
Human HIF-1α556-574 (FITC-labeled HIF-1α556-574), containing N-terminal FITC-Ahx, containing amino acid residues 556 to 574 (partial peptide) of HIF-1α was used as a substrate. Using FITC-labeled HIF-1α556-574, the competitive inhibition between 2-oxoglutarate and test compounds (PHD inhibitor) was evaluated based on the change in fluorescence polarization by the following method.
An enzyme (human PHD2184-418) and the substrate were diluted with an assay buffer (pH 7.4) containing 10 mM HEPES, 150 mM NaCl, 10 μM MnCl2-4H2O, 2 μM 2-oxoglutarate and 0.05% Tween-20. Test compounds were diluted with DMSO. Test compounds and human PHD2184-418 was added to the 384-well plate (Corning, black, opaque bottom) in advance. The reaction was started by the addition of FITC-labeled HIF-1α556-574. After incubating at 37° C. for 60 minutes, fluorescence polarization (excitation wavelength: 470 nm, fluorescence wavelength: 530 nm) was measured by PHERAstar FSX (BMG Labtech). Fluorescence polarization of each well was measured, and human PHD2 binding inhibitory activity of test compounds was calculated based on the value of test compound-free group.
For orientation: Polarisation of emitted light reports the rotation of a fluorescent probe.

human PHD2184-418, sequence (Q9GZT9 184-418): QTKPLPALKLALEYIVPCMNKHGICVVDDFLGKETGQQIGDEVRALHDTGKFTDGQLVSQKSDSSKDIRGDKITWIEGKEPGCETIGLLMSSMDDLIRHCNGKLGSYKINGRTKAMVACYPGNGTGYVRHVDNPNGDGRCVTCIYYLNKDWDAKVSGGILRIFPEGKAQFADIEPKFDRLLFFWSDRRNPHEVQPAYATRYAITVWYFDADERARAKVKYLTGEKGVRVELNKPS

As to `Cn1ccnc1CN1CC[C@H](n2c(=O)n(-c3ccc(-c4ccc(C(=O)O)cc4O)cc3)c3cccnc32)C1` [Example 44, (S)-2-Hydroxy-4′-(3-(1-((1-methyl-1H-imidazol-2-yl)methyl)pyrrolidin-3-yl)-2-oxo-2,3-dihydro-1H-imidazo[4,5-b]pyridin-1-yl)-[1,1′-biphenyl]-4-carboxylic acid], the IC50 (in general, the concentration that gives 50% inhibition) was 0.97 µM.
Same read-out and setting: with `Cn1ccnc1CN1CC[C@H](n2c(=O)n(-c3ccc(-c4ccc(O)cc4)cc3)c3cccnc32)C1` [Example 14, (S)-1-(4′-Hydroxy-[1,1′-biphenyl]-4-yl)-3-(1-((1-methyl-1H-imidazol-2-yl)methyl)pyrrolidin-3-yl)-1,3-dihydro-2H-imidazo[4,5-b]pyridin-2-one] the figure was 0.36 µM; with `O=C(O)c1ccnc(CN2CC[C@H](n3c(=O)n(-c4ccc(-c5ccc(O)c(C(=O)O)c5)c(O)c4)c4cccnc43)C2)c1` [Example 51, (S)-2-((3-(1-(3′-Carboxy-2,4′-dihydroxy-[1,1′-biphenyl]-4-yl)-2-oxo-1,2-dihydro-3H-imidazo[4,5-b]pyridin-3-yl)pyrrolidin-1-yl)methyl)isonicotinic acid], 0.14 µM.
Still for that read-out and setting: with `CSc1ccc(-n2c(=O)n([C@H]3CCN(Cc4ncc(C(=O)O)n4C)C3)c3ncccc32)cc1` [Example 60, (S)-1-Methyl-2-((3-(1-(4-(methylthio)phenyl)-2-oxo-1,2-dihydro-3H-imidazo[4,5-b]pyridin-3-yl)pyrrolidin-1-yl)methyl)-1H-imidazole-5-carboxylic acid] the figure was 0.59 µM.
On the same count and under the same terms, with `Cn1c(C#N)cnc1CN1CC[C@H](n2c(=O)n(-c3ccc(-c4ccncc4)cc3)c3cccnc32)C1` [Example 80, (S)-1-Methyl-2-((3-(2-oxo-1-(4-(pyridin-4-yl)phenyl)-1,2-dihydro-3H-imidazo[4,5-b]pyridin-3-yl)pyrrolidin-1-yl)methyl)-1H-imidazole-5-carbonitrile] the figure was 65.9 µM; with `Cc1cccnc1CN1CC[C@H](n2c(=O)n(-c3ccc(-c4ccc(O)cc4)cc3)c3cccnc32)C1` [Example 89, (S)-1-(4′-Hydroxy-[1,1′-biphenyl]-4-yl)-3-(1-((3-methylpyridin-2-yl)methyl)pyrrolidin-3-yl)-1,3-dihydro-2H-imidazo[4,5-b]pyridin-2-one], 3.17 µM; with `Cn1c(C(=O)O)cnc1CN1CC[C@@H](n2c(=O)n(-c3ccc(-c4ccc(C(=O)O)cc4)nc3)c3cccnc32)C1` [Example 88, (R)-2-((3-(1-(6-(4-Carboxyphenyl)pyridin-3-yl)-2-oxo-1,2-dihydro-3H-imidazo[4,5-b]pyridin-3-yl)pyrrolidin-1-yl)methyl)-1-methyl-1H-imidazole-5-carboxylic acid], 0.27 µM.
For `Cn1c(C(=O)O)cnc1CN1CC[C@H](n2c(=O)n(-c3cnc4ccccc4c3)c3cccnc32)C1` [Example 66, (S)-1-Methyl-2-((3-(2-oxo-1-(quinolin-3-yl)-1,2-dihydro-3H-imidazo[4,5-b]pyridin-3-yl)pyrrolidin-1-yl)methyl)-1H-imidazole-5-carboxylic acid], the half-inhibitory concentration (IC50) worked out at 1.17 µM.
On the same count and under the same terms, with `COC(=O)c1ccc(-c2ccc(-n3c(=O)n([C@H]4CCN(Cc5nccn5C)C4)c4ncccc43)cc2)cc1` [Example 37, Methyl (S)-4′-(3-(1-((1-methyl-1H-imidazol-2-yl)methyl)pyrrolidin-3-yl)-2-oxo-2,3-dihydro-1H-imidazo[4,5-b]pyridin-1-yl)-[1,1′-biphenyl]-4-carboxylate] the figure was 6.28 µM.
On to `O=c1n(-c2ccc(-c3ccccc3)cc2)c2cccnc2n1[C@H]1CCN(Cc2ncccc2O)C1` [Example 8, (S)-1-([1,1′-Biphenyl]-4-yl)-3-(1-((3-hydroxypyridin-2-yl)methyl)pyrrolidin-3-yl)-1,3-dihydro-2H-imidazo[4,5-b]pyridin-2-one], for which the inhibition at 100 µM came out at 29%.
Molecule `COC(=O)c1ccc(-n2c(=O)n([C@H]3CCN(Cc4ncccc4C)C3)c3ncccc32)cc1` [Example 15, Methyl (S)-4-(3-(1-((3-methylpyridin-2-yl)methyl)pyrrolidin-3-yl)-2-oxo-2,3-dihydro-1H-imidazo[4,5-b]pyridin-1-yl)benzoate] registered an IC50 of 64.5 µM.
Same read-out and setting: next, `Cn1c(C(=O)O)cnc1CN1CC[C@H](n2c(=O)n(-c3ccc(-c4ccc(C(=O)O)cc4)cc3)c3cc(C(F)(F)F)cnc32)C1` [Example 26, (S)-2-((3-(1-(4′-Carboxy-[1,1′-biphenyl]-4-yl)-2-oxo-6-(trifluoromethyl)-1,2-dihydro-3H-imidazo[4,5-b]pyridin-3-yl)pyrrolidin-1-yl)methyl)-1-methyl-1H-imidazole-5-carboxylic acid]: 0.13 µM.
`Cn1cnc(CN2CC[C@H](n3c(=O)n(-c4ccc(-c5ccccc5)cc4)c4cccnc43)C2)c1` [Example 6, (S)-1-([1,1′-Biphenyl]-4-yl)-3-(1-((1-methyl-1H-imidazol-4-yl)methyl)pyrrolidin-3-yl)-1,3-dihydro-2H-imidazo[4,5-b]pyridin-2-one hydrochloride]: the inhibition at 100 µM came out at 34%.
In turn, `Cc1ccc(-n2c(=O)n([C@H]3CCN(Cc4ncc(C(=O)O)n4C)C3)c3ncccc32)cc1` [Example 58, (S)-1-Methyl-2-((3-(2-oxo-1-(p-tolyl)-1,2-dihydro-3H-imidazo[4,5-b]pyridin-3-yl)pyrrolidin-1-yl)methyl)-1H-imidazole-5-carboxylic acid] returned a half-inhibitory concentration (IC50) of 1.02 µM.
Same read-out and setting: next, `COC(=O)c1ccc(-c2ccc(-n3c(=O)n([C@@H]4CCN(Cc5nccn5C)C4)c4ncccc43)c(C)c2)cc1` [Example 38, Methyl (R)-3′-methyl-4′-(3-(1-((1-methyl-1H-imidazol-2-yl)methyl)pyrrolidin-3-yl)-2-oxo-2,3-dihydro-1H-imidazo[4,5-b]pyridin-1-yl)-[1,1′-biphenyl]-4-carboxylate]: 4.63 µM; `Cc1cc(-c2ccc(C(=O)O)cc2)ccc1-n1c(=O)n([C@@H]2CCN(Cc3nccn3C)C2)c2ncccc21` [Example 48, (R)-3′-Methyl-4′-(3-(1-((1-methyl-1H-imidazol-2-yl)methyl)pyrrolidin-3-yl)-2-oxo-2,3-dihydro-1H-imidazo[4,5-b]pyridin-1-yl)-[1,1′-biphenyl]-4-carboxylic acid]: 0.35 µM; `Cc1cccnc1CN1CC[C@H](n2c(=O)n(-c3ccc(-c4ccc(F)cc4)cc3)c3cccnc32)C1` [Example 31, (S)-1-(4′-Fluoro-[1,1′-biphenyl]-4-yl)-3-(1-((3-methylpyridin-2-yl)methyl)pyrrolidin-3-yl)-1,3-dihydro-2H-imidazo[4,5-b]pyridin-2-one]: 12.5 µM.
Same read-out and setting: next, `Cc1cccnc1CN1CC[C@H](n2c(=O)n(-c3ccc(-c4ccccc4)cc3)c3cccnc32)C1` [Example 1, (S)-1-([1,1′-Biphenyl]-4-yl)-3-(1-((3-methylpyridin-2-yl)methyl)pyrrolidin-3-yl)-1,3-dihydro-2H-imidazo[4,5-b]pyridin-2-one]: 8.43 µM; `Cn1c(C(=O)O)cnc1CN1CC[C@H](n2c(=O)n(-c3ccc(-c4ccccc4)cc3)c3ccc(C(=O)NCC(=O)O)nc32)C1` [Example 77, (S)-2-((3-(1-([1,1′-Biphenyl]-4-yl)-5-((carboxymethyl)carbamoyl)-2-oxo-1,2-dihydro-3H-imidazo[4,5-b]pyridin-3-yl)pyrrolidin-1-yl)methyl)-1-methyl-1H-imidazole-5-carboxylic acid]: 0.61 µM.
